Entries after “also recorded” stand apart in the source; their conditions may differ.

In test [1] the test system is YUSAC-2 human melanoma cells. The test can be described thus: Melanoma tumor formation in CB.17 immunodeficient mice. It is filed as in vivo, CB.17 SCID/beige mice. How it is done: To determine whether interference with survivin function by regulated expression of survivin antagonists could block melanoma tumor formation in CB.17 immunodeficient mice, mice were monitored for 8 weeks following subcutaneous injection, and tumor measurements taken at 4- and 8-week time points (Table I). It was determined that YUSAC-2 cells consistently form localized tumors in 6 to 8-week-old female CB.17 SCID/beige mice (Taconic Farms, Germantown, N.Y.) approximately 3-4 weeks following subcutaneous injection of 1-3×10^6 cells. Animals were monitored for up to 4 months, and neither mortality nor gross metastasis is associated with increasing tumor size (up to 5000 mm^3) or ulceration. One day prior to injection, mice were shaved on the right flank, and the regular drinking water was replaced with 5% sucrose alone or containing […] tet as described (Shockett et al., 1995). Cells were harvested in log-phase growth, washed twice in PBS, resuspended in PBS (12×10^6 cells per ml) and injected (0.25 ml, 3×10^6 cells) subcutaneously. The drinking water was changed every 2-3 days. Tumor size was determined by the product of two perpendicular diameters and the height above the skin surface.
Table 1. Summary of tumor formation for all animals. CB.17 mice were injected with cells and tet was added or withheld from the drinking water. […]

Another test relates to F5.C4 tumors. The test can be described thus: Effect on established F5.C4 tumors in mice. The format is in vivo. As to the method: Error bars indicate standard deviation. Also shown are 5 representative growth curves from 15 animals in which tet was withheld (day 0) upon tumor formation (no symbols).
Next, the effect of survivin Thr^34→Ala on established tumors was assessed. Fifteen mice were injected with F5.C4 cells and tet was provided to permit tumor formation. Once tumors became apparent (20-50 mm^3), tet was withheld from the drinking water and tumors were monitored for 5 weeks. […] Rather, a spectrum of growth curves with some tumors failing to grow at all after tet was withdrawn was observed (FIG. 10A). […] In the two small F5.C4 tumors that formed in the absence of tet (Table I), a similar pattern of apoptotic cell death was seen (not shown).

For “survivin(T34A): dominant-negative, non-phosphorylatable survivin mutant with Thr34→Ala substitution, expressed from transfected cDNA (also HA- or GFP-tagged)”, the “Tumor size (mean ± standard deviation, only mice with tumors)” value in test [1] (8 Weeks, F5.C4 cells s.c., tet absent) is on record as 278 ± 116 mm^3. The “size and onset of tumors in tet-deprived animals compared to animals given tet” value in test [1] (F5.C4 cells, two tet-deprived animals with tumors) was “considerably smaller in size and appeared with a markedly delayed onset”. Also, in the test on F5.C4 tumors (F5.C4 tumors 20-50 mm^3 at withdrawal, monitored for 5 weeks), the “growth of established tumors after tet withdrawal” value is reported as “None of the tumors grew at a rate comparable to F5.C4 tumors in animals maintained on tet”. Besides, the “histologic analysis of tumors after transgene induction” value in the test on F5.C4 tumors (F5.C4 tumors, tet withdrawn, listed as survivin Thr^34→Ala) was “massive areas of necrosis and prominent cellular apoptosis by TUNEL; also recorded: lack of normal mitotic figures and the presence of aberrant mitoses”.
